Experimental data reported in article PMC8481536, “Wells–Dawson phosphotungstates as mushroom tyrosinase inhibitors: a speciation study” (Scientific Reports, 2021).
“And” between values parts separate entries of the source, which are not always exact repeats. Identical values can stand only once.

Tests used:
[1] = Speciation / hydrolytic stability of POT solutions in 50 mM Na-citrate buffer pH 6.8 by 31P-NMR and 183W-NMR; format: physicochemical; settings: for 31P-NMR spectrum 96 h after preparation compared with 48 h: for [P2W12]: signal at −8.3 ppm of hexalacunary anion; for Share of unidentified / unstable solution intermediates: 31P-NMR integrated POT signals, aged solutions; for Share of monolacunary [α2-P2W17O61]10− in solution, 48 h after preparation / Share of monolacunary [α2-P2W17O61]10− in solution, fresh (1 h after preparation) / Share of unchanged educt anion in solution, after 48 h / Share of unchanged educt anion in solution, fresh (1 h): 31P-NMR peak integration; for Share of free phosphate in solution: fresh and 48 h aged ([P2W15]), after rearrangement ([P2W12])
Procedure: The detailed structural information about species under the respective experimental conditions is essential for understanding of POT activity. […] The concentration of all species was calculated based on ^31P-NMR peaks integration. Since the stock solutions of each Wells–Dawson POT was used up to three days after preparation and ^183W-NMR acquisition takes 60 h, ^31P-NMR spectra for all four solutions have been recorded 1 h and 48 h after preparation to check if speciation changes occur over time. […] In the solution of intact POT one hour after preparation 12% of [α2-P^V2W^VI17O61]^10− was detected based on ^31P-NMR peaks integration (Fig. 3A), whereas 48 h after dissolution the concentration of monolacunary anion increased to 69%. […] The ^183 W-NMR spectra of monolacunary [P2W17]^10− (Fig. S8A) and trilacunary [P2W15]^12− (Fig. S8C) are in agreement with ^31P-NMR data confirming the presence of only the monolacunary anion by 9 signals. The ^31P-NMR spectrum of fresh hexalacunary POT [P2W12]^12− (Fig. 3D) points to the presence of unhydrolyzed hexalacunary [H2P^V2W^VI12O48]^12− (72%) together with a low amount of monolacunary [α2-P^V2W^VI17O61]^10− (20%). After 48 h, the signals corresponding to hexalacunary [H2P^V2W^VI12O48]^12− and monolacunary [α2-P^V2W^VI17O61]^10− decreased to 9% and 3%, respectively, while two intense signals at − 7.5 and − 9.5 ppm appeared. […] The signal at − 7.5 ppm corresponds to [P^V8W^VI48O184]^40−, which was previously detected in solutions with a high amount of NH 4^+[37]. The presence of four different POTs in [P2W12]^12− 48 h after preparation renders the detection of all species’ signals in the ^183W-NMR spectrum impossible due to their low concentrations and the low abundancy (14%) of the ^183W isotope (Fig. S8D). The most intense signals at -190.3, -191.6 and -211.3 ppm correspond to three types of W ions in cyclic [P^V8W^VI48O184]^40−[43]. ^31P-NMR spectra recorded 96 h after preparation are identical to those recorded after 48 h for [P2W18]^6−, [P2W17]^10− and [P2W15]^12−. […] In every ^31P-NMR analysis, peaks for free phosphate were observed, indicating the release of HxPO4^x−3 from the POT clusters as a consequence of partial decomposition or rearrangement (Fig. 3). The weak signals between − 12 and − 7 ppm in the ^31P-NMR spectra (Fig. 3) with a total amount of no more than 19% of all POT signals, correspond to solution intermediates of unknown identity that have been reported previously.
^183W-NMR and ^31P-NMR were recorded with a Bruker FT-NMR spectrometer Avance Neo 500 MHz (Bruker, Rheinstetten, Germany) at 25 °C. Chemical shifts were measured relative to 1 M Na2WO4 and 85% H3PO4. ^183W-NMR samples were prepared in 2.7 mL Na-citrate buffer (50 mM, pH 6.8) with a POT concentration of 2 mM with or without 1 mM L-DOPA and measured in 10 mm tubes. The experimental time was ca. 60 h, with a standard pulse program at 20.836 MHz and a 63° flip angle with 1 s relaxation delay. Subsequently, ^31P-NMR was measured at 202.53 MHz.
^183W-NMR was performed in 50 mM Na-citrate buffer at pH 6.8 to obtain insight into the chemical speciation and hydrolytic stability of POTs. The peaks of the ^183W-NMR for [P2W18]^6− are shifted by approx. 4–5 ppm downfield relative to the assignment in the literature (Table S2). The slight shifting can be explained by different buffer conditions and ionic strength of the solution with regard to the reference data.
The ^183W-NMR speciation indicates the presence of [α2-P^V2W^VI17O61]^10− anions in [P2W18]^6−, [P2W17]^10−, [P2W15]^12− at pH 6.8 (Figs. S8, S12). For the ^183W-NMR of [P2W18]^6− at pH 4 two lines (1:2) were assigned (Fig. S7), whereas for the same compound at neutral pH a mixture of [α-P^V2W^VI18O62]^6− (1:2) and [α2-P^V2W^VI17O61]^10− (2:2:2:2:1:2:2:2:2) was observed (Fig. S8). Also, the β-isomer was detected at pH 4 and pH 6.8, respectively (Figs. S7, S8). […]

Ca^2+-ATPase = test system: Ca^2+-ATPase; set-up: method as in PMID 29313547; settings: cited from earlier work
P-type ATPase = test system: P-type ATPase; set-up: method as in PMID 29313547; settings: cited from earlier work
aquaporin-3 = test system: aquaporin-3; set-up: method as in PMID 32252345; settings: cited from earlier work
[2] = 31P-NMR, 50 mM Na-citrate pH 6.8

Row | Substance | 31P-NMR spectrum 96 h after preparation compared with 48 h ([1]; 50 mM Na-citrate pH 6.8) | Share of unidentified / unstable solution intermediates ([1]; 50 mM Na-citrate pH 6.8) | Share of monolacunary [α2-P2W17O61]10− in solution, 48 h after preparation ([1]; 50 mM Na-citrate pH 6.8) | Share of monolacunary [α2-P2W17O61]10− in solution, fresh (1 h after preparation) ([1]; 50 mM Na-citrate pH 6.8) [%] | Share of unchanged educt anion in solution, after 48 h ([1]; 50 mM Na-citrate pH 6.8) [%] | Share of unchanged educt anion in solution, fresh (1 h) ([1]; 50 mM Na-citrate pH 6.8) [%] | Share of [P2W19O69(H2O)]14− in solution after 48 h [1, 2] [%] | Share of [P8W48O184]40− in solution after 48 h [1, 2] [%] | Share of free phosphate in solution [1, 2] [%] | Influence of the substrate L-DOPA on the POT solution (reduction / speciation) ([1]; 50 mM Na-citrate pH 6.8) | Dominant POT species at pH 6.8 in Na-citrate buffer [1] | Stable in Na-citrate buffer at pH 6.8 [1] | Inhibition of Ca2+-ATPase (Ca^2+-ATPase) | Inhibition of P-type ATPase (P-type ATPase) | Inhibition of aquaporin-3 (aquaporin-3) | Share of monolacunary [α2-P2W17O61]10− in solution, 48 h after preparation ([1]; 50 mM Na-citrate pH 6.8, listed as [α/β-P^V2W^VI18O62]^6−) | Sample composition after 28 days storage ([1]; Na-citrate buffer pH 6.8, room temperature, 183W-NMR and 31P-NMR) | Share of monolacunary [α2-P2W17O61]10− in solution, fresh (1 h after preparation) ([1]; 50 mM Na-citrate pH 6.8, listed as [P^V2W^VI15O56]^12−)
1 | (NH4)12[H2P^V2W^VI12O48]·24H2O [[P2W12]^12−] | disappeared completely | 19% | 3% | 20 | 9 | 72 | 22 | 23 | 24 | no change in speciation | [H2P^V2W^VI12O48]^12− + Hx[α2-P^V2W^VI17O61]^(10−x)− + [P^V2W^VI19O69(H2O)]^14− + [P^V8W^VI48O184]^40− | No | inhibited | inhibited | inhibited | – | – | –
2 | K6[α/β-P^V2W^VI18O62]·14H2O [[P2W18]^6−] | identical | 9% | 69% | – | 15 | 88 | – | – | – | turned blue | Hx[α2-P^V2W^VI17O61]^(10−x)− | No | inhibited | inhibited | inhibited | ~ 69% | low amounts of the α-isomer were found, but no β-isomer was detected | –
3 | K12[P^V2W^VI15O56]·24H2O [[P2W15]^12−] | identical | 3% and 5% | 62% and 61% | 62 | – | – | – | – | 35 | no change in speciation | Hx[α2-P^V2W^VI17O61]^(10−x)− | No | – | – | – | – | – | ~ 62%
4 | K10[α2-P^V2W^VI17O61]·20H2O [[P2W17]^10−] | identical | 8% | 92% | – | – | – | – | – | – | no change in speciation | Hx[α2-P^V2W^VI17O61]^(10−x)− | Yes | – | – | – | – | – | –
